Counter-ions that a name gives are not always drawn.
How the values were obtained:
[1] = system: kinases in KinaseProfiler; assay: KinaseProfiler panel as a whole (selectivity for other kinases); assay type: biochemical; conditions: concentration of 1,000 nM
Protocol: […]; The selectivity of JTE-052 for other kinases was assessed using KinaseProfiler™ (Millipore Co. Ltd.). […].

[2] = system: IL-2-induced IFN-γ production; assay: IL-2-induced IFN-γ production in mice; assay type: in vivo, DBA/1J mice; conditions: Mus musculus, po
Protocol: DBA/1J mice were dosed once via oral gavage with compounds. At 1 or 6 h after compound administration, the mice were injected intraperitoneally with 2 μg of recombinant mouse IL-2 and 10 μg of biotinylated anti-mouse IFN-γ capture antibody. After 6 h, the mice were euthanized, and blood was collected. Serum IFN-γ was quantified using a Mouse IFN-γ In Vivo Capture Assay Set (BD Biosciences).
After 1 or 6 h, they were injected with IL-2 and anti-mouse IFN-γ capture antibody. At 6 h after the injection, blood samples were collected, and the serum IFN-γ levels were measured.

[3] = system: rat collagen-induced arthritis model; design: method as in PMID 15683847; conditions: cited from earlier work
[4] = system: rat collagen-induced arthritis model; assay: Collagen-induced arthritis in rats; assay type: in vivo, Lewis rats; conditions: MTX 0.3 mg/kg; for effect on paw swelling / arthritis symptoms, therapeutic administration: oral once daily from day 15, JTE-052 0.1, 1, 10 mg/kg
Protocol: CIA was induced in rats as previously described with some modifications. Briefly, type II collagen (Collagen Research Center, Saitama, Japan) was dissolved in 0.01 M acetic acid at 2 mg/mL, and the solution was emulsified in an equal volume of Freund’s incomplete adjuvant (Difco Laboratories, Detroit, MI). Lewis rats were immunized with 1 mL of the emulsion (1 mg of type II collagen) via ten intradermal injections on the back under anesthesia. The rats were then challenged with 0.2 mL of the emulsion injected into the base of the tail on day 8 under anesthesia. The test drugs were given orally once daily from day 1 to day 21 (preventive administration) or from day 15 to day 28 (therapeutic administration). After arthritis induction, the hind paw volume was measured by a water displacement method using a plethysmometer (Muromachi Kikai Co. Ltd., Tokyo, Japan). On day 22 or day 29, the rats were euthanized, and their hind paws were excised and X-rayed or processed for histological evaluation. Radiographs of the right hindlimbs were taken using a microfocal cone-beam X-ray CT scanner (MCT-CB100MF; Hitachi Medical Corporation, Tokyo, Japan). The severity of bone destruction was scored on a 3-point scale ranging from 0 to 2 for the following five joints: second metatarsal—second intertarsal joint, third metatarsal—third intertarsal joint, talus—central intertarsal joint, calcaneus—fourth intertarsal joint, and astragalo—tibial joint. For histological analysis, the formalin-fixed left hindlimbs were sectioned and stained with hematoxylin and eosin. The histology of the tarsal joints was evaluated by assessing the following parameters defined in the preliminary examination: inflammatory cell infiltration, synovial cell hyperplasia, cartilage destruction, and bone destruction. The severity of each histological change was scored on a 5-point scale ranging from 0 to 4. (Score 0: normal; Score 1: minimal, solitary (and very small) lesion; Score 2: slight, focal (and small) lesion; Score 3: moderate, scattered lesion; and Score 4: severe, extensive lesion).
(§1) . The hind paw volume (a) and body weight (b) were measured periodically. Images of hematoxylin and eosin staining (c) and radiographs of hindlimbs (e) are shown. Histological change (d) and radiographical change (f) were scored. The results are expressed as mean ± SD. ^# p < 0.05, ^## p < 0.01, versus vehicle by the Steel test
as §1, with “SD. *p < 0.05, **p < 0.01, versus vehicle by Dunnett’s test.” for “SD.”

[5] = system: IFN-α signaling (JAK1/Tyk2), Stat1 phosphorylation in hPBMCs; assay: cells; conditions: Homo sapiens, 0.25 h, read-out: IC50, IFN-α cytokine signaling (JAK1/Tyk2)
Protocol: (§2) hPBMCs (3 × 10^6 cells/tube) were incubated with a test compound for 30 min at 37 °C, and then treated with IL-2 (100 ng/mL), IL-6 (100 ng/mL), IL-23 (100 ng/mL), IFN-α (100 ng/mL), or GM-CSF (1 ng/mL) for an additional 15 min. To terminate the stimulation, the cells were fixed with Fixation Buffer (BD Biosciences) for 10 min at 37 °C. The fixed cells were incubated with Perm Buffer II (BD Biosciences) for 30 min on ice and then incubated with fluorochrome-labeled anti-CD3, anti-CD4, or anti-phospho-Stat antibodies for 30 min at room temperature. The cytokine-induced Stat phosphorylation was analyzed and quantified using a Cytomics FC500 (Beckman Coulter Inc., Brea, CA). In the case of IL-23 stimulation, hPBMCs were precultured with 10 μg/mL phytohemagglutinin (PHA)-M (Sigma-Aldrich Co.) for 3 days to enhance their response to IL-23.
(§3) The phosphorylation levels of Stat5 (IL-2 and GM-CSF), Stat3 (IL-6 and IL-23), or Stat1 (IFN-α) in CD3^+CD4^+ cells (IL-2, IL-23, and IFN-α) or CD3^-CD4^+ cells (IL-6 and GM-CSF) were analyzed by flow cytometry. Data are presented as percentages of mean fluorescence intensity relative to vehicle (100 %) and non-stimulated control cells (0 %). Values are mean ± SEM. Three independent experiments were performed

[6] = system: IL-2 signaling (JAK1/JAK3), Stat5 phosphorylation in hPBMCs; assay: cells; conditions: Homo sapiens, 0.25 h, read-out: IC50, IL-2 cytokine signaling (JAK1/JAK3)
Protocol: as §2, §3

SMILES: C[C@@H]1CCN(C(=O)CC#N)C[C@@H]1N(C)c1ncnc2[nH]ccc12 [Tofacitinib, tofacitinib citrate, reference compound]
- inhibition of other kinases in KinaseProfiler [1]: did not inhibit any of the kinases
- ED50 ([2]; dosed 1 h prior to IL-2 injection): 1.1 mg/kg
- ED50 ([2]; dosed 6 h prior to IL-2 injection): 13 mg/kg

SMILES: C=CC[C@@H]1/C=C(\C)C[C@H](C)C[C@H](OC)[C@H]2O[C@@](O)(C(=O)C(=O)N3CCCC[C@H]3C(=O)O[C@H](/C(C)=C/[C@@H]3CC[C@@H](O)[C@H](OC)C3)[C@H](C)[C@@H](O)CC1=O)[C@H](C)C[C@@H]2OC [tacrolimus]
- effect in rat collagen-induced arthritis model, administration after the onset of arthritis [3]: had no inhibitory effects

SMILES: CN(Cc1cnc2nc(N)nc(N)c2n1)c1ccc(C(=O)N[C@@H](CCC(=O)O)C(=O)O)cc1 [MTX, Methotrexate hydrate]
- effect on hind paw swelling and joint inflammation, preventive administration ([4]; oral once daily from day 1, JTE-052 0.1, 1, 10 mg/kg): significantly inhibited these symptoms
- effect on paw swelling / arthritis symptoms, therapeutic administration [4]: did not attenuate all of these symptoms
- effect on paw swelling / arthritis symptoms, therapeutic administration ([4]; listed as methotrexate): ineffective

SMILES: N#CC[C@H](C1CCCC1)n1cc(-c2ncnc3[nH]ccc23)cn1 [Ruxolitinib, Ruxolitinib phosphate, reference compound]
- IC50 [5]: 1.1 nM
- IC50 [6]: 13 nM

From paper PMC4286029 (Inflammation Research, 2014)
